Assay results as given in US8163779B2, “Glucokinase activators” (Takeda San Diego, Inc., priority 2006, dated 2012).

target: T1, glucokinase (GK) (Homo sapiens, UniProt P35557); test: enzymatic glucokinase activity assay (ATP consumption, KinaseGlo luminescence); assay type: biochemical; conditions: recombinant GK residues 12-465; 5 μM ATP, 5 mM Glucose; Kact = concentration that displays 50% of the maximal increase in GK activity; read-out: pKact
T1 construct: I.D. No. 1 corresponds to residues 12-465 of glucokinase; made in house; host or cells: E. coli DH10b-T1r
T1 sequence (P35557 with tags, fused parts or gaps isoform P35557-2): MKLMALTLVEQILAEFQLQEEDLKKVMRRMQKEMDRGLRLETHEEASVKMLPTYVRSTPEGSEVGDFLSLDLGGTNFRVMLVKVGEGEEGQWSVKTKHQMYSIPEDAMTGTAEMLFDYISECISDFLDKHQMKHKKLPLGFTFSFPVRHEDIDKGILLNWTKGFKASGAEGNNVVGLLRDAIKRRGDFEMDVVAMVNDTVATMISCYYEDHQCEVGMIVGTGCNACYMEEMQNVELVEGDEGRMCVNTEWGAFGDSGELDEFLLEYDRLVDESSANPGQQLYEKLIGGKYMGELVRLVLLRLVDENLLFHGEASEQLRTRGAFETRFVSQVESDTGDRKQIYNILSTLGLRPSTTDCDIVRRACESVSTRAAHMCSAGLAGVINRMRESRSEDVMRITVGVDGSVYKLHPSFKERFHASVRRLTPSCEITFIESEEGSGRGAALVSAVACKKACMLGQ
Outline: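 Activation was scored as ATP consumption, quantified by KinaseGlo luciferase luminescence after a 60 min room-temperature reaction. Reactions contained E. coli-expressed, purified GK, 5 μM ATP, 5 mM glucose, 10 mM MgCl2, 0.01% Brij35 and 2% DMSO at pH 7.2; pKact was fitted non-linearly.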

Compound | EC50 [µM]
O=C(Nc1ncc(Cl)s1)[C@@H](CC1CCOCC1)n1ccc(S(=O)(=O)CC(F)(F)F)cc1=O [Example 148, (R)-N-(5-chlorothiazol-2-yl)-2-(2-oxo-4-(2,2,2-trifluoroethylsulfonyl)pyridin-1(2H)-yl)-3-(tetrahydro-2H-pyran-4-yl)propanamide] | > 15.8
CN(C)C(=O)CN1CCN(Cc2cnc(NC(=O)C(CC3CCOCC3)n3ccc(S(=O)(=O)C4CC4)cc3=O)s2)CC1 (stereo not drawn) [Example 150, 2-(4-(cyclopropylsulfonyl)-2-oxopyridin-1(2H)-yl)-N-(5-((4-(2-(dimethylamino)-2-oxoethyl)piperazin-1-yl)methyl)thiazol-2-yl)-3-(tetrahydro-2H-pyran-4-yl)propanamide] | > 15.8
CC(=O)Nc1ccc(=O)n(C(CC2CCOCC2)C(=O)Nc2ncc(Cl)s2)c1 (stereo not drawn) [Example 156, 2-(5-acetamido-2-oxopyridin-1(2H)-yl)-N-(5-chlorothiazol-2-yl)-3-(tetrahydro-2H-pyran-4-yl)propanamide] | > 15.8
Cc1cc(S(=O)(=O)C2CC2)cc(=O)n1[C@H](CC1CCCC1)C(=O)Nc1ncc(F)s1 [Example 163, (R)-3-cyclopentyl-2-(4-(cyclopropylsulfonyl)-6-methyl-2-oxopyridin-1(2H)-yl)-N-(5-fluorothiazol-2-yl)propanamide] | > 15.8
Cc1cc(S(=O)(=O)C2CCCC2)cc(=O)n1[C@H](CC1CCOCC1)C(=O)Nc1ccc(F)cn1 [Example 164, (R)-2-(4-(cyclopentylsulfonyl)-6-methyl-2-oxopyridin-1(2H)-yl)-N-(5-fluoropyridin-2-yl)-3-(tetrahydro-2H-pyran-4-yl)propanamide] | > 15.8
Cc1cc(S(=O)(=O)C2CCCC2)cc(=O)n1[C@H](CC1CCOCC1)C(=O)Nc1ccc(Cl)cn1 [Example 167, (R)-N-(5-chloropyridin-2-yl)-2-(4-(cyclopentylsulfonyl)-6-methyl-2-oxopyridin-1(2H)-yl)-3-(tetrahydro-2H-pyran-4-yl)propanamide] | > 15.8
Cc1cc(S(=O)(=O)c2cccc(Cl)c2)cc(=O)n1[C@H](CC1CCOCC1)C(=O)Nc1ncc(F)s1 [Example 169, (R)-2-(4-(3-chlorophenylsulfonyl)-6-methyl-2-oxopyridin-1(2H)-yl)-N-(5-fluorothiazol-2-yl)-3-(tetrahydro-2H-pyran-4-yl)propanamide] | > 15.8
Cc1cc(S(=O)(=O)C2CC2)cc(=O)n1[C@H](CC1CCCC1)C(=O)Nc1cnccn1 [Example 170, (R)-3-cyclopentyl-2-(4-(cyclopropylsulfonyl)-6-methyl-2-oxopyridin-1(2H)-yl)-N-(pyrazin-2-yl)propanamide] | > 15.8
Cc1cc(S(=O)(=O)C2CC2)cc(=O)n1[C@H](CC1CCOCC1)C(=O)Nc1ncc(Cl)s1 [Example 173, (R)-N-(5-chlorothiazol-2-yl)-2-(4-(cyclopropylsulfonyl)-6-methyl-2-oxopyridin-1(2H)-yl)-3-(tetrahydro-2H-pyran-4-yl)propanamide] | > 15.8
Cc1cc(S(=O)(=O)C2CCOCC2)cc(=O)n1C(CC1CCCC1)C(=O)Nc1ncc(Cl)s1 (stereo not drawn) [Example 174, N-(5-chlorothiazol-2-yl)-3-cyclopentyl-2-(6-methyl-2-oxo-4-(tetrahydro-2H-pyran-4-ylsulfonyl)pyridin-1(2H)-yl)propanamide] | 1.58 to 15.8
Cc1cc(S(=O)(=O)C2CCOCC2)cc(=O)n1C(CC1CCCC1)C(=O)Nc1ncc(F)s1 (stereo not drawn) [Example 175, 3-cyclopentyl-N-(5-fluorothiazol-2-yl)-2-(6-methyl-2-oxo-4-(tetrahydro-2H-pyran-4-ylsulfonyl)pyridin-1(2H)-yl)propanamide] | 1.58 to 15.8

Other lines, results leading:

EC50 [µM] | Compound
1.58 to 15.8 | O=C(Nc1ncc(Cl)s1)[C@H](CC1CCOCC1)n1ccc(S(=O)(=O)CC(F)(F)F)cc1=O [Example 149, (S)-N-(5-chlorothiazol-2-yl)-2-(2-oxo-4-(2,2,2-trifluoroethylsulfonyl)pyridin-1(2H)-yl)-3-(tetrahydro-2H-pyran-4-yl)propanamide]
< 1.58 | Cc1c(S(=O)(=O)C2CCCC2)cc(=O)n([C@@H](CC2CCOCC2)C(=O)Nc2ncc(F)s2)c1C [Example 151, (S)-2-(4-(cyclopentylsulfonyl)-5,6-dimethyl-2-oxopyridin-1(2H)-yl)-N-(5-fluorothiazol-2-yl)-3-(tetrahydro-2H-pyran-4-yl)propanamide]
< 1.58 | Cc1c(S(=O)(=O)C2CCCC2)cc(=O)n([C@H](CC2CCOCC2)C(=O)Nc2ncc(F)s2)c1C [Example 153, (R)-2-(4-(cyclopentylsulfonyl)-5,6-dimethyl-2-oxopyridin-1(2H)-yl)-N-(5-fluorothiazol-2-yl)-3-(tetrahydro-2H-pyran-4-yl)propanamide]
1.58 to 15.8 | Cc1cc(S(=O)(=O)C2CC2)c(N)c(=O)n1[C@H](CC1CCCC1)C(=O)Nc1ncc(F)s1 [Example 154, (R)-2-(3-amino-4-(cyclopropylsulfonyl)-6-methyl-2-oxopyridin-1(2H)-yl)-3-cyclopentyl-N-(5-fluorothiazol-2-yl)propanamide]
1.58 to 15.8 | Cc1cc(S(=O)(=O)C2CC2)c(N)c(=O)n1[C@@H](CC1CCCC1)C(=O)Nc1ncc(F)s1 [Example 155, (S)-2-(3-amino-4-(cyclopropylsulfonyl)-6-methyl-2-oxopyridin-1(2H)-yl)-3-cyclopentyl-N-(5-fluorothiazol2-yl)propanamide]
1.58 to 15.8 | Cc1cc(S(=O)(=O)C2CC2)cc(=O)n1C(CC1CCOCC1)C(=O)Nc1ncc(Cl)s1 (stereo not drawn) [Example 157, N-(5-chlorothiazol-2-yl)-2-(4-(cyclopropylsulfonyl)-6-methyl-2-oxopyridin-1(2H)-yl)-3-(tetrahydro-2H-pyran-4-yl)propanamide]
< 1.58 | Cc1cc(S(=O)(=O)c2cccc(F)c2)cc(=O)n1C(CC1CCOCC1)C(=O)Nc1ncc(Cl)s1 (stereo not drawn) [Example 158, N-(5-chlorothiazol-2-yl)-2-(4-(3-fluorophenylsulfonyl)-6-methyl-2-oxopyridin-1(2H)-yl)-3-(tetrahydro-2H-pyran-4-yl)propanamide]
1.58 to 15.8 | Cc1cc(S(=O)(=O)c2cccc(F)c2)cc(=O)n1C(CC1CCOCC1)C(=O)Nc1ncc(F)s1 (stereo not drawn) [Example 159, 2-(4-(3-fluorophenylsulfonyl)-6-methyl-2-oxopyridin-1(2H)-yl)-N-(5-fluorothiazol-2-yl)-3-(tetrahydro-2H-pyran-4-yl)propanamide]
1.58 to 15.8 | Cc1cc(S(=O)(=O)C2CCS(=O)(=O)CC2)cc(=O)n1C(CC1CCCCC1)C(=O)Nc1ncc(Cl)s1 (stereo not drawn) [Example 160, N-(5-chlorothiazol-2-yl)-2-(4-(1,1-dioxotetrahydrothiopyran-4-ylsulfonyl)-6-methyl-2-oxopyndin-1(2H)-yl)-3-cyclohexylpropanamide]
1.58 to 15.8 | Cc1cc(S(=O)(=O)C2CCS(=O)(=O)CC2)cc(=O)n1C(CC1CCCCC1)C(=O)Nc1ncc(F)s1 (stereo not drawn) [Example 161, N-(5-fluorothiazol-2-yl)-2-(4-(1,1-dioxotetrahydrothiopyran-4-ylsulfonyl)-6-methyl-2-oxopyridin-1(2H)-yl)-3-cyclohexyipropanamide]
< 1.58 | Cc1cc(S(=O)(=O)C2CC2)cc(=O)n1[C@@H](CC1CCCC1)C(=O)Nc1ncc(F)s1 [Example 162, (S)-3-cyclopentyl-2-(4-(cyclopropylsulfonyl)-6-methyl-2-oxopyridin-1(2H)-yl)-N-(5-fluorothiazol-2-yl)propanamide]
1.58 to 15.8 | Cc1cc(S(=O)(=O)C2CCCC2)cc(=O)n1[C@@H](CC1CCOCC1)C(=O)Nc1ccc(F)cn1 [Example 165, (S)-2-(4-(cyclopentylsulfonyl)-6-methyl-2-oxopyridin-1(2H)-yl)-N-(5-fluoropyridin-2-yl)-3-(tetrahydro-2H-pyran-4-yl)propanamide]
< 1.58 | Cc1cc(S(=O)(=O)C2CCCC2)cc(=O)n1[C@@H](CC1CCOCC1)C(=O)Nc1ccc(Cl)cn1 [Example 166, (S)-N-(5-chloropyridin-2-yl)-2-(4-(cyclopentylsulfonyl)-6-methyl-2-oxopyridin-1(2H)-yl)-3-(tetrahydro-2H-pyran-4-yl)propanamide]
< 1.58 | Cc1cc(S(=O)(=O)c2cccc(Cl)c2)cc(=O)n1[C@@H](CC1CCOCC1)C(=O)Nc1ncc(F)s1 [Example 168, (S)2-(4-(3-chlorophenylsulfonyl)-6-methyl-2-oxopyridin-1(2H)-yl)-N-(5-fluorothiazol-2-yl)-3-(tetrahydro-2H-pyran-4-yl)propanamide]
1.58 to 15.8 | Cc1cc(S(=O)(=O)C2CC2)cc(=O)n1[C@@H](CC1CCCC1)C(=O)Nc1cnccn1 [Example 171, (S)-3-cyclopentyl-2-(4-(cyclopropylsulfonyl)-6-methyl-2-oxopyridin-1(2H)-yl)-N-(pyrazin-2-yl)propanamide]
< 1.58 | Cc1cc(S(=O)(=O)C2CC2)cc(=O)n1[C@@H](CC1CCOCC1)C(=O)Nc1ncc(Cl)s1 [Example 172, (S)-N-(5-chlorothiazol-2-yl)-2-(4-(cyclopropylsulfonyl)-6-methyl-2-oxopyridin-1(2H)-yl)-3-(tetrahydro-2H-pyran-4-yl)propanamide]
